Measured values from publication PMC10214526, “Semisynthetic LC3 Probes for Autophagy Pathways Reveal a Noncanonical LC3 Interacting Region Motif Crucial for the Enzymatic Activity of Human ATG3” (ACS Central Science, 2023).

Experiments:
Format in all cases: biochemical, human
ATG3 [1] = assay: Reaction (cross-linking) of Ubl activity-based probes with recombinant ATG3 and variants; settings: probe 15 μM, SDS-PAGE
Protocol: Figure 1 Modification of ATG3 with GABARAP ABPs depends on LIR^ATG3. a. Characterization of GABARAP activity-based probes, 1 and 2, obtained by hydrazide-acylation. Deconvoluted mass-spectrum (ESI) of GABARAP(ΔG116)–NHNH α-chloroacetyl 1. Expected mass 13707 Da. Deconvoluted mass-spectrum (ESI) of GABARAP(ΔG116)–NHNH methyl-fumarate 2. Expected mass 13743 Da. b. […] The reaction was allowed to proceed for 1 h and was analyzed by SDS-PAGE and Coomassie Blue staining. c. ColabFold-predicted structure of the protein-complex of ATG3 and GABARAP. Side-chain atoms are shown for the predicted LIR motif in ATG3 (90–112). d. Reaction of 2 (15 μM) with ATG3 variants C1, C0, and ΔLIR (15 μM). ATG3 C1 contains only active-site cysteine C264. ATG3 C0 contains no cysteines. ATG3 ΔLIR lacks amino acids 95–111. Reaction was allowed to proceed for 1 h and was analyzed by SDS-PAGE and Coomassie Blue staining. Full-gel images for b and d are available in the Supplementary Information.
We were intrigued by the cross-linking efficiency of 2 with ATG3 and sought to investigate the origin of this efficiency by generating a C1 variant of ATG3 that only contains the catalytic cysteine 264 and a corresponding C0 variant containing no cysteines. […] In general, the affinity of E2s for their cognate Ubls are quite low, as the thioester transfer from the E1 to the E2 enzyme is facilitated by additional interactions from the UFD domain of the E1 enzyme.[23] […]
Upon completion the solution was dialyzed against 25 mM
HEPES, 200 mM NaCl pH 7.2 at 4 °C. Cleaved intein was removed using gravity Ni-NTA purification.
The flow-through was collected and combined with resin washes. The combined fractions were dialyzed and further purified using ion exchange.
3.3. Generation of GABARAP and LC3A hydrazides from SUMO-GABARAP/LC3A-Mxe GyrA-
SUMO-GABARAP/LC3A-Mxe GyrA-His6 fusion after Ni-NTA purification was dialyzed against intein cleavage buffer (25 mM HEPES, 500 mM NaCl, 1 mM EDTA pH 7.2 at 4 °C). After dialysis hydrazine monohydrate (75 mM) and MESNa (10 mM) was added and the pH adjusted to 7.8. The solution was allowed to stand at room temperature and monitored using LC-MS analysis. Upon completion the solution was dialyzed against 25 mM HEPES, 500 mM NaCl pH 7.2 at 4 °C. SENP1 (1 wt%) was added to cleave the SUMO-tag. The cleaved intein was removed using gravity Ni-NTA purification. […]
dialyzed and further purified using cation exchange using a buffer 25 mM Tris pH 8.0 and a gradient of […] in the same buffer over 25 column volumes. The product fractions were pooled, concentrated, and stored at –80 °C until further use.
3.4. Synthesis of symmetrical anhydrides
The carboxylic acid was dissolved in CH2Cl2 (300 mM) and dicyclohexylcarbodiimide (0.5 eqiv) was added in one portion. The reaction was stirred under N2 for 18 h. The suspension was filtered and concentrated to ~10% of the initial volume. The solution was placed at 4 °C for 1 h and filtered again.
The filtrate was concentrated to obtain the symmetrical anhydride which was used without further purification. Anhydrides can be stored at –20 °C for weeks.
3.5. Reaction of modified Ubl probes with E2s
Ubl probes (15 μM) were mixed with E2s (15 μM) in PBS. The mixture was incubated at 37 °C in a water bath for 0.5-3 h. The reaction was quenched by addition of 2x Laemmli buffer and boiled at 95 °C for 5 min. Samples were resolved by SDS-PAGE (8-16%, Bio-Rad) and visualized by […]
Coomassie staining. […]

ATG3 C1 alanine variants = assay: Alanine screen: cross-linking of probe 2 with ATG3 C1 alanine variants; settings: probe 2 15 μM, PBS, 37 °C, 30 min, n = 2
Protocol: Figure 4 Dissection of interactions between GABARAP and LIR^ATG3 by alanine scanning. GABARAP probe 2 (15 μM) was reacted with ATG3 C1 alanine variants (15 μM) for 30 min. Coomassie Blue stained SDS-PAGE gel showing modification of ATG3 C1 variants with GABARAP methyl fumarate. The indicated ATG3 residues were mutated to alanine. Cross-linking efficiency was estimated by gel densitometry and normalized to the reaction with ATG3 C1. Data are presented as average values ± s.d. n = 2 independent experiments. Full-gel images are available in the Supplementary Information.
Farnung et al. Supplementary Information
SDS-PAGE (8-16%, Bio-Rad) and visualized by Coomassie staining. Gel bands were quantified by gel densitometry using ImageLab (Bio-Rad).
ATG3 C1 (15 μM) was mixed with GABARAP methyl fumarate 2 (15 μM) in PBS, and the reaction mixture was incubated at 37 °C for 30 min. The reaction was quenched by addition of 2x Laemmli buffer and boiled at 95 °C for 5 min. Samples were resolved by SDS-PAGE (8-16%, Bio-Rad) and visualized by Coomassie staining. Gel bands were quantified by gel densitometry using ImageLab […]
3.9. Structure prediction […]
! ! ( )"% - ) ( $&, . "#*( *"&% % *! "#*( * &% %*( * +% ( ( + '( ))+( ! )&#+*"&%- )*("*+( * -"*! * % %*(" + *&& * "% (+ ' '*" ! […]

ATG3 [2] = assay: Reaction (cross-linking) of Ubl activity-based probes with recombinant ATG3 and variants; settings: probe 15 μM; ATG3 wt, C264A and ΔLIR 5 μM; SDS-PAGE (Figure S9)

For “GABARAP(ΔG116)–NHNH methyl-fumarate [compound 2]”, the “Reaction with ATG3 wt” value (ATG3 [1]; ATG3 15 μM, 1 h, Coomassie Blue) was “reacted with ATG3 efficiently leading to the formation of multiple ATG3–GABARAP bands”, the “Reaction with ATG3 C0” value (ATG3 [1]; ATG3 C0 (no cysteines) 15 μM) was “no reaction was observed” and the “Reaction with ATG3 C1” value (ATG3 [1]; ATG3 C1 (only active-site C264) 15 μM) was “excellent reactivity”. The “Reaction with ATG3 ΔLIR” value (ATG3 [1]; ATG3 C1 ΔLIR (Δ95–111) 15 μM) was “no complex formation”, the “Reaction with ATG3 C264A” value (ATG3 [1]; catalytically inactive ATG3 C264A 15 μM) was “loss of one ATG3–GABARAP band but did not abrogate additional bands for the complex” and the “Cross-linking with ATG3 D109 or T110 mutants” value (ATG3 C1 alanine variants; D109 or T110 to alanine, ATG3 C1 variant 15 μM) was “almost no effect on reaction efficiency”. For the same substance, the “Cross-linking with ATG3 E95 and I97 mutants” value (ATG3 C1 alanine variants; E95 and I97 to alanine, ATG3 C1 variant 15 μM) was “severely diminish cross-linking”, the “Cross-linking with ATG3 V108A” value (ATG3 C1 alanine variants; V108A, ATG3 C1 variant 15 μM, relative to ATG3 C1) was “significantly reduced the cross-linking efficiency” and the “Cross-linking with ATG3 W107 mutant” value (ATG3 C1 alanine variants; W107A, ATG3 C1 variant 15 μM, relative to ATG3 C1) was “almost completely abrogated the reaction”. The “Cross-linking with other ATG3 alanine mutants” value (ATG3 C1 alanine variants; majority of the other screened residues) was “at least some impact on the conjugation with GABARAP” and the “LIR dependence of ATG3 wild-type modification” value (ATG3 [2]) was “dependent on LIRATG3”.
